EC50 data for 19 molecules are collected here from patent US11618747B2, “LXR modulators with bicyclic core moiety” (OrsoBio, Inc., priority 2018, dated 2023).

Experiment [1] addresses T1, LXRβ ligand-binding domain (Homo sapiens, UniProt P55055, DUP175-175).
T1 construct: amino acids 156-461; NP009052; made in house; host or cells: E. coli
T1 sequence (P55055 with tags, fused parts or gaps DUP175-175 limits assumed): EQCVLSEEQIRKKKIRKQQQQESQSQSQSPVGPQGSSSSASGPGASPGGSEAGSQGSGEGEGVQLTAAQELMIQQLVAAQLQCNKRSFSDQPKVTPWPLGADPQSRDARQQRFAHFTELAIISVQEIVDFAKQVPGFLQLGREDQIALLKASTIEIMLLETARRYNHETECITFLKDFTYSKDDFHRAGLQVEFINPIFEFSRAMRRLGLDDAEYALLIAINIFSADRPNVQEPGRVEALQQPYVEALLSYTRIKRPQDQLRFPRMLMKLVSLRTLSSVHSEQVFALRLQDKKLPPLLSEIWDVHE
Put plainly: TR-FRETβ activity assay (NCoA3 coactivator peptide recruitment). It counts as biochemical. The following applies: TR-FRET, 1 μM 24(S)-25-epoxycholesterol prestimulation; read-out: FRETβ (EC50 range). The method, then:
(§1) The tested compounds were usually dissolved, tested and stored as 20 mM stock solutions in DMSO. Since sulfonyl acetic acid derivatives tend to decarboxylate under these conditions, these stock solutions were prepared, tested and stored as 20 mM DMSO stock solutions containing 100 mM trifluoroacetic Acid (5 equivalents). Sulfonyl acetic acid derivatives are shelf stable as solid at rt for long time as reported by Griesbrecht et al. (Synlett 2010:374) or Faucher et al. (J. Med. Chem. 2004; 47:18).
Recombinant GST-LXRPβ ligand-binding domain (LBD; amino acids 156-461; NP009052; SEQ ID NO:4) was expressed in E. coli and purified via gluthatione-sepharose affinity chromatography. N-terminally biotinylated NCoA3 coactivator peptide (SEQ ID NO:7) was chemically synthesized (Eurogentec). Assays were done in 384 well format (final assay volume of 25 μL/well) in a Tris/HCl buffer (pH 6.8) containing KCl, bovine serum albumin, Triton-X-100 and 1 μM 24(S)-25-epoxycholesterol as LXR-prestimulating agonist. Assay buffer was provided and test articles (potential LXR inverse agonists) were titrated to yield final assay concentrations of 50 μM, 16.7 μM, 5.6 μM, 1.9 μM, 0.6 μM, 0.2 μM, 0.07 μM, 0.02 μM, 0.007 μM, 0.002 μM with one vehicle control. Finally, a detection mix was added containing anti GST-Tb cryptate (CisBio; 610SAXLB) and Streptavidin-XL665 (CisBio; 610SAXLB) as fluorescent donor and acceptor, respectively, as well as the coactivator peptide and LXRβ-LBD protein (SEQ ID NO:4). The reaction was mixed thoroughly, equilibrated for 1 h at 4° C. and vicinity of LXRβ and coactivator peptide was detected by measurement of fluorescence in a VictorX4 multiplate reader (PerkinElmer Life Science) using 340 nm as excitation and 615 and 665 nm as emission wavelengths. Assays were performed in triplicates.
Final Assay Concentrations of Components:
240 mM KCl, 1 μg/μL BSA, 0.002% Triton-X-100, […] anti GST-Tb cryptate, 2.5 ng/μL Streptavidin-XL665, coactivator peptide (400 nM), LXRβ protein (530 μg/mL, i.e. 76 nM).
A general note: Time-resolved FRET reads energy transfer from a long-lived donor to a nearby acceptor.

The target in the next experiment is T2, full length (FL) LXRβ (Homo sapiens, UniProt P55055, DUP175-175).
T2 construct: the full length (FL) proteins of LXRα (amino acids 1-447); NP005684; NP009052; expressed in transfected cells; host or cells: HEK293
T2 sequence (P55055 with tags, fused parts or gaps DUP175-175): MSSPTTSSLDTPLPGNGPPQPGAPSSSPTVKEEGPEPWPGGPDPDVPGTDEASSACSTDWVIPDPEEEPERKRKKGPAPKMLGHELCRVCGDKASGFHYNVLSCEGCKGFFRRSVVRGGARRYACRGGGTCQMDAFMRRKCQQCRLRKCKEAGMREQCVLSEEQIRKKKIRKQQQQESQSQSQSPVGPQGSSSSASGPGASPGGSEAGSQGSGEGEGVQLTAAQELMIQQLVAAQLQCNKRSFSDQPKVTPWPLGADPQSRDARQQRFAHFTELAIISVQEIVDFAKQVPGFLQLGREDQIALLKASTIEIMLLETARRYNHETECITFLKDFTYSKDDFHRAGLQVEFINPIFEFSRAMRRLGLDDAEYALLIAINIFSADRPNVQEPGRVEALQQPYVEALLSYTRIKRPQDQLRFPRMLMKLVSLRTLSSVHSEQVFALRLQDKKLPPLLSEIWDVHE
Put plainly: LXR Gal4 reporter transient transfection assay (FL-M2H Gal4β). It counts as cell-based. The conditions noted are these: HEK293 cells, full length LXRβ; read-out: FL-M2H Gal4β (EC50 range). Here is the method:
as §1
LXR Gal4 Reporter Transient Transfection Assays
LXRα and LXRβ activity status was determined via detection of interaction with coactivator and corepressor proteins in mammalian two-hybrid experiments (M2H). For this, via transient transfection the full length (FL) proteins of LXRα (amino acids 1-447; NP005684; SEQ ID NO:1) or LXRβ-(amino acids 1-461; NP009052; SEQ ID NO:2) or the ligand-binding domains (LBD) of LXRα (amino acids 155-447 SEQ ID NO:3) or LXRβ (amino acids 156-461; SEQ ID NO:4) were expressed from pCMV-AD (Stratagene) as fusions to the transcriptional activation domain of NFkB. As cofactors, domains of either the steroid receptor coactivator 1 (SRC1; amino acids 552-887; SEQ ID NO:5) or of the corepressor NCoR (amino acids 1906-2312; NP006302; SEQ ID NO:6) were expressed as fusions to the DNA binding domain of the yeast transcription factor GAL4 (from pCMV-BD; Stratagene). Interaction was monitored via activation of a coexpressed Firefly Luciferase Reporter gene under control of a promoter containing repetitive GAL4 response elements (vector pFRLuc; Stratagene). Transfection efficiency was controlled via cotransfection of constitutively active pRL-CMV Renila reniformis luciferase reporter (Promega). HEK293 cells were grown in minimum essential medium (MEM) with 2 mM L-glutamine and Earle's balanced salt solution supplemented with 8.3% fetal bovine serum, 0.1 mM non-essential amino acids, 1 mM sodium pyruvate, at 37° C. in 5% CO2. 3.5×10^4 cells/well were plated in 96-well cell culture plates in growth medium supplemented with 8.3% fetal bovine serum for 16-20 h to ˜90% confluency. For transfection, medium was taken off and LXR and cofactor expressing plasmids as well as the reporter plasmids are added in 30 μL OPTIMEM/well including polyethylene-imine (PEI) as vehicle. Typical amounts of plasmids transfected/well: pCMV-AD-LXR (5 ng), pCMV-BD-cofactor (5 ng), pFR-Luc (100 ng), pRL-CMV (0.5 ng). Compound stocks were prepared in DMSO, prediluted in MEM to a total volume of 120 μL, and added 4 h after addition of the transfection mixture (final vehicle concentration not exceeding 0.2%). Cells were incubated for additional 16 h, lysed for 10 min in 1× Passive Lysis Buffer (Promega) and Firefly and Renilla luciferase activities were measured sequentially in the same cell extract using buffers containing D-luciferine and coelenterazine, respectively. Measurements of luminescence were done in a BMG-luminometer.

A word on the EC50: it is the concentration at which the effect is half-maximal. As for `N#Cc1sccc1-c1c(-c2cccs2)n(S(=O)(=O)c2ccc(Cl)cc2)c2cc(C(=O)O)ccc12` [Example 19, 1-((4-Chlorophenyl)sulfonyl)-3-(2-cyanothiophen-3-yl)-2-(thiophen-2-yl)-1H-indole-6-carboxylic Acid], the EC50 in experiment [1] was greater than 10 µM.

For `Cc1ccc(S(=O)(=O)n2c(-c3cccc(-c4ccc(CN(C)C)cc4Cl)c3)c(-c3ccsc3C#N)c3cc(F)ccc32)cc1` [Example 2, 3-(2-(2′-Chloro-4′-((dimethylamino)methyl)-[1,1′-biphenyl]-3-yl)-5-fluoro-1-tosyl-1H-indol-3-yl)thiophene-2-carbonitrile], the EC50 in experiment [1] was 0.1 to 1 µM; at full length (FL) LXRβ it was less than 0.1 µM.

As for `N#Cc1sccc1-c1c(-c2ccccc2)n(S(=O)(=O)c2ccc(CC(=O)O)s2)c2ccccc12` [27/3], in experiment [1], the EC50 is greater than 10 µM.

As for `N#Cc1sccc1-c1c(-c2ccccc2)n(S(=O)(=O)c2ccc(-c3cccc(C(=O)O)c3)cc2)c2ccccc12` [27/2], the EC50 in experiment [1] lay within 1 to 10 µM.

Consider `Cc1ccc(S(=O)(=O)n2c(-c3cccc(-c4ccc(C(=O)NO)cc4)c3)c(-c3ccsc3C#N)c3cc(F)ccc32)cc1` [Example 6, 3′-(3-(2-Cyanothiophen-3-yl)-5-fluoro-1-tosyl-1H-indol-2-yl)-N-hydroxy-[1,1′-biphenyl]-4-carboxamide], for which the EC50 in experiment [1] was 0.1 to 1 µM; on full length (FL) LXRβ, less than 0.1 µM.

Turning to `Cc1ccc(S(=O)(=O)n2c(-c3cccc(-c4cnc(C(=O)O)cc4C)c3)c(-c3ccsc3C#N)c3cc(F)ccc32)cc1` [Example 36, 5-(3-(3-(2-Cyanothiophen-3-yl)-5-fluoro-1-tosyl-1/indol-2-yl)phenyl)-4-methylpicolinic Acid], the figures for the EC50 (in experiment [1]; at full length (FL) LXRβ) were 1 to 10 µM and 0.1 to 1 µM, respectively.

With `Cn1cnc(S(=O)(=O)n2c(-c3cccc(C4CC4C(=O)O)c3)c(-c3ccsc3C#N)c3ccccc32)c1` (stereo not shown) [30/10], the EC50 in experiment [1] is greater than 10 µM.

For `N#Cc1cccc(C#N)c1-c1c(-c2cccc(-c3ccc(C(=O)O)cc3Cl)c2)n(S(=O)(=O)c2ccc(C(F)F)cc2)c2cc(F)c(O)cc12` [Example 44, 2-Chloro-3′-(3-(2,6-dicyanophenyl)-1-((4-(difluoromethyl)phenyl)sulfonyl)-6-fluoro-5-hydroxy-1H-indol-2-yl)-[1,1′-biphenyl]-4-carboxylic Acid], the values for the EC50 (in experiment [1]; at full length (FL) LXRβ) were 0.1 to 1 µM and less than 0.1 µM, respectively.

Turning to `Cc1ccc(S(=O)(=O)n2c(-c3cccc(-c4ccc(-c5nnn[nH]5)cc4Cl)c3)c(-c3ccsc3C#N)c3cc(F)ccc32)cc1` [Example 37, 3-(2-(2′-Chloro-4′-(1H-tetrazol-5-yl)-[1,1′-biphenyl]-3-yl)-5-fluoro-1-tosyl-1H-indol-3-yl)thiophene-2-carbonitrile], the EC50 in experiment [1] was 0.1 to 1 µM; on full length (FL) LXRβ it was less than 0.1 µM.

As to `N#Cc1sccc1-c1c(-c2cccs2)n(S(=O)(=O)c2ccc(Cl)cc2)c2cc(OCC(=O)O)ccc12` [15/3], the EC50 in experiment [1] was greater than 10 µM.

Turning to `Cc1ccc(S(=O)(=O)n2c(-c3cccc(-c4cncc(S(=O)(=O)CC(=O)O)c4)c3)c(-c3ccsc3C#N)c3ccccc32)cc1` [Example 5, 2-((5-(3-(3-(2-Cyanothiophen-3-yl)-1-tosyl-1H-indol-2-yl)phenyl)pyridin-3-yl)sulfonyl)acetic Acid], the results for the EC50 (in experiment [1]; on full length (FL) LXRβ) were 0.1 to 1 µM and 1 to 10 µM, respectively.

`Cc1ccc(S(=O)(=O)n2c(-c3cccc(-c4ccc(C(N)=O)cc4)c3)c(-c3ccsc3C#N)c3cc(F)ccc32)cc1` [6/2]: the EC50 in experiment [1] is 0.1 to 1 µM; on full length (FL) LXRβ, less than 0.1 µM.

In the case of `Cc1ccc(S(=O)(=O)n2c(-c3cccc(N4CC(C(=O)O)C4)c3)c(-c3ccsc3C(=O)N(C)C)c3cc(F)ccc32)cc1` [3/28], the figures for the EC50 (in experiment [1]; at full length (FL) LXRβ) were greater than 10 µM and 1 to 10 µM, respectively.

As to `Cc1ccc(S(=O)(=O)n2c(-c3cccc(S(=O)(=O)CC(=O)O)c3)c(-c3ccsc3C#N)c3ccccc32)cc1` [3/15], the EC50 in experiment [1] fell in the range of 1 to 10 µM.

In the case of `Cc1ccc(S(=O)(=O)n2c(-c3cccc(-c4ccc(C(=O)O)cc4Cl)c3)c(-c3ccccc3C#N)c3cc(F)ccc32)cc1` [Example 11, 2-Chloro-3′-(3-(2-cyanophenyl)-5-fluoro-1-tosyl-1H-indol-2-yl)-[1,1′-biphenyl]-4-carboxylic acid], the EC50 (in experiment [1]; on full length (FL) LXRβ) was less than 0.1 µM throughout.

For the molecule `N#Cc1sccc1-c1c(-c2ccccc2)n(S(=O)(=O)c2ccc(CC(=O)O)cc2)c2ccccc12` [27/1], the EC50 in experiment [1] was 1 to 10 µM.

Take `N#Cc1cccc(C#N)c1-c1c(-c2cccc(-c3ccc(C(=O)O)cc3)c2)n(S(=O)(=O)c2ccc(C(F)F)cc2)c2ccc(F)cc12` [11/50]: the EC50 (in experiment [1]; at full length (FL) LXRβ) was less than 0.1 µM throughout.

With `Cc1ccc(S(=O)(=O)n2c(-c3cccc(-c4cc(C)c(C(=O)O)cc4Cl)c3)c(-c3ccsc3C#N)c3cc(F)ccc32)cc1` [Example 12, 2-Chloro-3′-(3-(2-cyanothiophen-3-yl)-5-fluoro-1-tosyl-1H-indol-2-yl)-5-methyl-[1,1′-biphenyl]-4-carboxylic acid], the EC50 in experiment [1] was 0.1 to 1 µM; on full length (FL) LXRβ, less than 0.1 µM.

As to `Cc1cccc(C#N)c1-c1c(-c2cccc(-c3ccc(C(=O)O)cc3Cl)c2)n(S(=O)(=O)c2ccc(C(F)F)cc2)c2ccc(F)cc12` [11/36, 2-chloro-3′-(3-(2-cyano-6-methylphenyl)-1-((4-(difluoro-methyl)phenyl)sulfonyl)-5-fluoro-1H-indol-2-yl)-[1,1′-biphenyl]-4-carboxylic Acid], the EC50 (in experiment [1]; at full length (FL) LXRβ) was less than 0.1 µM in each case.
